Source: patent US11795204B2 (Zealand Pharma A/S, priority 2012, dated 2023)
Square brackets hold non-standard residues; d marks the D form. Peptide text beside a SMILES is read from it. Dab = NCC[C@H](N)C(=O)O; Aib = CC(C)(N)C(=O)O

What was measured:
[1] = target: T1, human Glucagon-R (Homo sapiens, UniProt P47871); experiment: Glucagon receptor assay (cAMP induction, AlphaScreen); assay type: cell-based; conditions: HEK293 cells expressing the human Glucagon-R, 15 min at 37° C., read-out: GCG-R EC50 in vitro
T1 construct: expressed in transfected cells
Protocol: The 5′-end primers additionally encoded a near-Kozak consensus sequence to ensure efficient translation. […] 48 hr after transfection, cells were seeded for limited dilution cloning and selected with 1 mg/ml G418 in the culture medium.
On the day of analysis, growth medium was removed and the cells were washed once with […] of the included Assay buffer with IBMX. Cells were incubated in […] Assay buffer/IBMX containing increasing concentrations of test peptides for 15 min at 37° C. Then the peptides/Assay buffer was removed and cells were lysed by addition of […] Lysis buffer pr. well and incubation for at least 10 min at room temperature. From each well […] cell lysate was transferred to a 384-well OptiPlate and mixed with Donor and Acceptor beads and incubated for 1 h at room temperature. The cAMP content was measured on an Envision plate reader.

[2] = Chemical stability assessment (RP-HPLC normalized purity); assay type: physicochemical; conditions: for Normalized purity pH 4.0 after 14 days: 1 mg/ml in 50 mM acetate buffer pH 4.0, 40° C.; for Normalized purity pH 7.5 after 14 days: 1 mg/ml in 50 mM phosphate buffer pH 7.5, 40° C.
Protocol: Samples were placed in glass vials and incubated at 40° C. The samples were analysed by reverse-phase HPLC on a C18 column with gradient elution using an acetonitrile/trifluoroacetic acid/water eluent system. The area-percentage (area-%) of the main peak after incubation time T=t (relative to time T=0) was detected by UV spectrometry at 220 nm. The purity was first determined as follows: Purity(area-%)=(area of main peak/total area of all peaks)×100. […] Normalized purity values in Table 2 were determined after 14 days of incubation.

[3] = physchem; conditions: pH 7.5
Protocol: A stock solution of the test peptide (2 mg/ml; determined by measurement of the absorption of the solution at 280 nm, and using the theoretical extension coefficient based on the content of tryptophan and tyrosine in the peptide) in demineralized water adjusted to pH 2.5 with HCl was prepared, and aliquots were diluted 1:1 in 100 mM acetate buffer (pH 4.0) and 100 mM phosphate buffer (pH 7.5), respectively, and loaded in a standard flat-bottom, non-sterile 96-well UV Microplate. The absorbance of samples (single samples, n=1) at 280 and 325 nm was measured in an absorbance-based plate reader, which was preheated to ambient temperature.

T1 sequence (P47871 26-477): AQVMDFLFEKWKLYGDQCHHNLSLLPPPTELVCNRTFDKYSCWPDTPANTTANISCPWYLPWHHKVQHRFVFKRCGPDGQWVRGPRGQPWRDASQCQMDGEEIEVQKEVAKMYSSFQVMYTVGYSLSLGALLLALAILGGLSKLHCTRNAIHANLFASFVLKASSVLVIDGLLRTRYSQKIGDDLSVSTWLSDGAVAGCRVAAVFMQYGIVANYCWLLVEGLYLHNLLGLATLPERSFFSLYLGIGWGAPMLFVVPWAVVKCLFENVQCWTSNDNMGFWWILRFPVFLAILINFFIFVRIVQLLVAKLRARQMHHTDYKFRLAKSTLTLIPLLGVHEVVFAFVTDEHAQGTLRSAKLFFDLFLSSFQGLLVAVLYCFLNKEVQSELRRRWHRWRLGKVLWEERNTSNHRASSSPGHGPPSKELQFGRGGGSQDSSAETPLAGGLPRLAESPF

Molecule	EC50 [1] [pM]	Normalized purity pH 4.0 after 14 days [2] [%]	Normalized purity pH 7.5 after 14 days [2] [%]	solubility [3] [µg/mL]
H-HSQGTFTSDYSKYLDSARAEDFVKWLEET-OH [Compound 2]	180	83.5	86.2	≥ 1000
CNC(=O)CC[C@H](NC(=O)[C@H](CO)NC(=O)[C@@H](N)Cc1c[nH]cn1)C(=O)NCC(=O)N[C@H](C(=O)N[C@@H](Cc1ccccc1)C(=O)N[C@H](C(=O)N[C@@H](CO)C(=O)N[C@@H](CC(=O)O)C(=O)N[C@@H](Cc1ccc(O)cc1)C(=O)N[C@@H](CO)C(=O)N[C@@H](CCCCN)C(=O)N[C@@H](Cc1ccc(O)cc1)C(=O)N[C@@H](CC(C)C)C(=O)N[C@@H](CC(=O)O)C(=O)NC(C)(C)C(=O)N[C@@H](C)C(=O)N[C@@H](CCCNC(=N)N)C(=O)N[C@@H](C)C(=O)N[C@@H](CCC(=O)O)C(=O)N[C@@H](CO)C(=O)N[C@@H](Cc1ccccc1)C(=O)N[C@H](C(=O)N[C@@H](CCCCN)C(=O)N[C@@H](Cc1c[nH]c2ccccc12)C(=O)N[C@@H](CC(C)C)C(=O)N[C@@H](CCC(=O)O)C(=O)N[C@@H](CO)C(=O)N[C@H](C(=O)O)[C@@H](C)O)C(C)C)[C@@H](C)O)[C@@H](C)O [Compound 26] (H-HSE(NHMe)GTFTSDYSKYLD[Aib]ARAESFVKWLEST-OH)	6.9	90	93.9	≥ 1000
H-HSQGTFTSDYSKYLDEARAKDFVEWLEKT-OH [Compound 5]	170	91.8	89.6	≥ 1000
CC(C)C[C@H](NC(=O)[C@H](Cc1c[nH]c2ccccc12)NC(=O)[C@H](CCCCN)NC(=O)[C@@H](NC(=O)[C@H](Cc1ccccc1)NC(=O)[C@H](CO)NC(=O)[C@H](CCC(=O)O)NC(=O)[C@H](C)NC(=O)[C@H](CCCNC(=N)N)NC(=O)[C@H](C)NC(=O)C(C)(C)NC(=O)[C@H](CC(=O)O)NC(=O)[C@H](CC(C)C)NC(=O)[C@H](Cc1ccc(O)cc1)NC(=O)[C@H](CCCCN)NC(=O)[C@H](CO)NC(=O)[C@H](Cc1ccc(O)cc1)NC(=O)[C@H](CC(=O)O)NC(=O)[C@H](CO)NC(=O)[C@@H](NC(=O)[C@H](Cc1ccccc1)NC(=O)[C@@H](NC(=O)CNC(=O)[C@H](CCC(N)=O)NC(=O)[C@H](CO)NC(=O)[C@@H](N)Cc1c[nH]cn1)[C@@H](C)O)[C@@H](C)O)C(C)C)C(=O)N[C@@H](CCC(=O)O)C(=O)N[C@@H](CO)C(=O)N[C@H](C(N)=O)[C@@H](C)O [Compound 31] (H-HSQGTFTSDYSKYLD[Aib]ARAESFVKWLEST-NH2)	7.2	93.1	91.7	≥ 1000
H-HSQGTFTSDYSKYLDLARAEDFVKWLEST-OH [Compound 17]	29	89.9	88.3	≥ 1000
CC(C)C[C@H](NC(=O)[C@H](Cc1c[nH]c2ccccc12)NC(=O)[C@H](CCCCN)NC(=O)[C@@H](NC(=O)[C@H](Cc1ccccc1)NC(=O)[C@H](CO)NC(=O)[C@H](CCC(=O)O)NC(=O)[C@H](C)NC(=O)[C@H](CCCNC(=N)N)NC(=O)[C@H](C)NC(=O)C(C)(C)NC(=O)[C@H](CC(=O)O)NC(=O)[C@H](CC(C)C)NC(=O)[C@H](Cc1ccc(O)cc1)NC(=O)[C@H](CCCCN)NC(=O)[C@H](CO)NC(=O)[C@H](Cc1ccc(O)cc1)NC(=O)[C@H](CC(=O)O)NC(=O)[C@H](CO)NC(=O)[C@@H](NC(=O)[C@H](Cc1ccccc1)NC(=O)[C@@H](NC(=O)[C@@H](C)NC(=O)[C@H](CCC(N)=O)NC(=O)[C@H](CO)NC(=O)[C@@H](N)Cc1c[nH]cn1)[C@@H](C)O)[C@@H](C)O)C(C)C)C(=O)N[C@@H](CCC(=O)O)C(=O)N[C@@H](CO)C(=O)N[C@H](C(=O)O)[C@@H](C)O [Compound 22] (H-HSQ[dA]TFTSDYSKYLD[Aib]ARAESFVKWLEST-OH)	24	91.1	95.3	≥ 1000
H-HSQGTFTSDYSKYLDSARAEDFVAWLEST-OH [Compound 4]	340	80.5	84.6	≥ 1000
CC(C)C[C@H](NC(=O)[C@H](Cc1c[nH]c2ccccc12)NC(=O)[C@H](CCCCN)NC(=O)[C@@H](NC(=O)[C@H](Cc1ccccc1)NC(=O)[C@H](CO)NC(=O)[C@H](CCC(=O)O)NC(=O)[C@H](C)NC(=O)[C@H](CCCNC(=N)N)NC(=O)[C@H](C)NC(=O)C(C)(C)NC(=O)[C@H](CC(=O)O)NC(=O)[C@H](CC(C)C)NC(=O)[C@H](Cc1ccc(O)cc1)NC(=O)[C@H](CCCCN)NC(=O)[C@H](CO)NC(=O)[C@H](Cc1ccc(O)cc1)NC(=O)[C@H](CC(=O)O)NC(=O)[C@H](CO)NC(=O)[C@@H](NC(=O)[C@H](Cc1ccccc1)NC(=O)[C@@H](NC(=O)CNC(=O)[C@H](CCC(N)=O)NC(=O)[C@H](CO)NC(=O)[C@@H](N)Cc1c[nH]cn1)[C@@H](C)O)[C@@H](C)O)C(C)C)C(=O)N[C@@H](CCC(=O)O)C(=O)N[C@@H](CO)C(=O)N[C@@H](C)C(=O)O [Compound 30] (H-HSQGTFTSDYSKYLD[Aib]ARAESFVKWLESA-OH)	16	88.6	91.4	≥ 1000
H-HSQGTFTSDYSKYLDKARAEDFVKWLEST-OH [Compound 3]	30	85.0	86.5	≥ 1000
CC(=O)NCC[C@H](NC(=O)[C@H](CO)NC(=O)[C@@H](N)Cc1c[nH]cn1)C(=O)NCC(=O)N[C@H](C(=O)N[C@@H](Cc1ccccc1)C(=O)N[C@H](C(=O)N[C@@H](CO)C(=O)N[C@@H](CC(=O)O)C(=O)N[C@@H](Cc1ccc(O)cc1)C(=O)N[C@@H](CO)C(=O)N[C@@H](CCCCN)C(=O)N[C@@H](Cc1ccc(O)cc1)C(=O)N[C@@H](CC(C)C)C(=O)N[C@@H](CC(=O)O)C(=O)NC(C)(C)C(=O)N[C@@H](C)C(=O)N[C@@H](CCCNC(=N)N)C(=O)N[C@@H](C)C(=O)N[C@@H](CCC(=O)O)C(=O)N[C@@H](CO)C(=O)N[C@@H](Cc1ccccc1)C(=O)N[C@H](C(=O)N[C@@H](CCCCN)C(=O)N[C@@H](Cc1c[nH]c2ccccc12)C(=O)N[C@@H](CC(C)C)C(=O)N[C@@H](CCC(=O)O)C(=O)N[C@@H](CO)C(=O)N[C@H](C(=O)O)[C@@H](C)O)C(C)C)[C@@H](C)O)[C@@H](C)O [Compound 32] (H-HS[Dab](Ac)GTFTSDYSKYLD[Aib]ARAESFVKWLEST-OH)	9.3	91.2	96.3	≥ 1000
CC(C)C[C@H](NC(=O)[C@H](Cc1c[nH]c2ccccc12)NC(=O)[C@H](CCCCN)NC(=O)[C@@H](NC(=O)[C@H](Cc1ccccc1)NC(=O)[C@H](CO)NC(=O)[C@H](CCC(=O)O)NC(=O)[C@H](C)NC(=O)[C@H](CCCNC(=N)N)NC(=O)[C@H](CCCNC(=N)N)NC(=O)C(C)(C)NC(=O)[C@H](CC(=O)O)NC(=O)[C@H](CC(C)C)NC(=O)[C@H](Cc1ccc(O)cc1)NC(=O)[C@H](CCCCN)NC(=O)[C@H](CO)NC(=O)[C@H](Cc1ccc(O)cc1)NC(=O)[C@H](CC(=O)O)NC(=O)[C@H](CO)NC(=O)[C@@H](NC(=O)[C@H](Cc1ccccc1)NC(=O)[C@@H](NC(=O)CNC(=O)[C@H](CCC(N)=O)NC(=O)[C@H](CO)NC(=O)[C@@H](N)Cc1c[nH]cn1)[C@@H](C)O)[C@@H](C)O)C(C)C)C(=O)N[C@@H](CCC(=O)O)C(=O)N[C@@H](CO)C(=O)N[C@H](C(=O)O)[C@@H](C)O [Compound 25] (H-HSQGTFTSDYSKYLD[Aib]RRAESFVKWLEST-OH)	6.6	93.8	89.8	≥ 1000
